# Measurements: patent publication US9271978B2 (Zenith Epigenetics Corp., priority 2012, dated 2016)
# Legend:
# hIL-6 mRNA = assay: Inhibition of hIL-6 mRNA transcription in U937 cells; assay type: cell-based, human; set-up: key: Active: Compounds with an IC50 value less than 30 μM were deemed to be active.; Not Active: Compounds with an IC50 value less than 30 μM were deemed to be active; settings: LPS stimulation, active = IC50 <30 μM
# How it was run: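 Readout is one-step real-time PCR of hIL-6 mRNA, normalized to an internal control and given as fold induction versus control. Cells: PMA (60 ng/mL, 3 days)-differentiated U937 macrophages, compound added 1 h before 1 ug/mL LPS, harvested after 3 h at 37° C.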
# c-myc = assay: Inhibition of c-myc expression in MV4-11 cells (mRNA, real-time PCR); assay type: cell-based; set-up: key: Active: Compounds with an IC50 value less than 30 μM were deemed to be active.; Not Active: Compounds with an IC50 value less than 30 μM were deemed to be active; settings: Human AML MV4-11 cells, 3 h incubation
# How it was run: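 Duplex RT-qPCR of c-myc against cyclophilin cDNA gave IC50 from a dose–response curve. Input was isolated mRNA from 2.5×10^4 MV4-11 cells after 3 h exposure at 37 °C to compound or 0.1% DMSO vehicle.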
# ApoA-I mRNA = assay: Up-regulation of hApoA-1 mRNA transcription in Huh7 cells; assay type: cell-based, human; set-up: key: Active: Compounds with an EC170 value less than 30 μM were deemed to be active; settings: 48 h treatment, ApoA-I mRNA by real-time PCR, Active = EC170 less than 30 μM
# Protocol: In this example, ApoA-I mRNA in tissue culture cells was quantitated to measure the transcriptional up-regulation of ApoA-I when treated with a compound of the present disclosure.
# Huh7 cells (2.5×10^5 per well) were plated in a 96-well plate using 100 μL DMEM per well, (Gibco DMEM supplemented with penicillin/streptomycin and 10% FBS), 24 h before the addition of the compound of interest. After 48 h treatment, the spent media was removed from the Huh-7 cells and placed on ice (for immediate use) or at −80° C. (for future use) with the “LDH cytotoxicity assay Kit II” from Abcam. The cells remaining in the plate were rinsed with 100 μL PBS.
# Then 85 μL of cell lysis solution was added to each well and incubated for 5-10 min at room temperature, to allow for complete cell lysis and detachment. mRNA was then prepared using the “mRNA Catcher PLUS plate” from Life Technologies, according to the protocol supplied. After the last wash, as much wash buffer as possible was aspirated without allowing the wells to dry. Elution Buffer (E3, 80 μL) was then added to each well. mRNA was then eluted by incubating the mRNA Catcher PLUS plate with Elution Buffer for 5 min at 68° C., and then 1 min at 4° C. Catcher plates with mRNA eluted were kept on ice for use or stored at −80° C.
# The eluted mRNA isolated was then used in a one-step real-time PCR reaction, using components of the Ultra Sense Kit together with Life Technologies primer-probe mixes. Real-time PCR data was analyzed, using the Ct values, to determine the fold induction of each unknown sample, relative to the control (that is, relative to the control for each independent DMSO concentration).
# Compounds with an EC170 value less than 30 μM were deemed to be active.
# [1] = test system: human AML MV-4-11 (CRL-9591) cells; assay: Inhibition of cell proliferation in MV4-11 cells; assay type: cell-based; set-up: key: Active: Compounds with an IC50 value less than 30 μM were deemed to be active.; Not Active: Compounds with an IC50 value less than 30 μM were deemed to be active; settings: human AML MV-4-11 cells, 72 h; active = IC50 <30 μM
# How it was run: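 IC50 values come from blank-corrected proliferation relative to DMSO controls, read as 490 nm absorbance 3–4 h after CellTiter Aqueous One addition. Before that, cells seeded at 5×10^4/well were exposed for 72 h (37° C, 5% CO2) to triplicate two-fold compound dilutions spanning 30–0.2 μM.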
# [2] = molecular target: T1, Brd4 bromodomain 1 (BRD4(1)) (Homo sapiens, UniProt O60885); assay: Inhibition of tetra-acetylated histone H4 binding to Brd4 bromodomain 1 (TR-FRET); set-up: key: Active: Compounds with an IC50 value less than 30 μM were deemed to be active.; Not Active: Compounds with an IC50 value less than 30 μM were deemed to be active; settings: tetra-acetylated histone H4 peptide, active = IC50 <30 μM
# T1 construct: Illustrative results with the first bromodomain of Brd4; made in house; host or cells: E. coli BL21 (DE3)
# How it was run: (§1)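 IC50 values come from dose-response curves of the 665 nm to 620 nm TR-FRET signal decrease, measured after 2 h at room temperature. Reactions contained 200 nM E. coli-expressed His-tagged bromodomain, 25-50 nM biotinylated tetra-acetylated H4 peptide, Eu-streptavidin plus XL665 anti-His antibody, with 30 mM HEPES pH 7.4, 320 mM KF and 0.2% DMSO.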
# [3] = molecular target: T2, second bromodomain of Brd2 (BRD2(2)) (Homo sapiens, UniProt P25440); assay: Inhibition of tetra-acetylated histone H4 binding to Brd2 bromodomain 2 (TR-FRET); set-up: key: Active: Compounds with an IC50 value less than 30 μM were deemed to be active.; Not Active: Compounds with an IC50 value less than 30 μM were deemed to be active; settings: tetra-acetylated histone H4 peptide, active = IC50 <30 μM
# T2 construct: made in house; host or cells: E. coli BL21 (DE3)
# How it was run: as §1
# T2 sequence (P25440 344-453 limits assumed): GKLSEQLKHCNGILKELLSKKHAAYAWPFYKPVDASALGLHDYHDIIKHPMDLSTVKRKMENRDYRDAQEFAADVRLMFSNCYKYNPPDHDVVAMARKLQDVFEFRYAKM
IL-6 activity (IC50 <30 μM) (hIL-6 mRNA),c-myc activity (IC50 <30 μM) (c-myc),Cell Proliferation activity (IC50 <30 μM) [1],FRET activity (IC50 <30 μM) BRD4(1) [2],FRET activity (IC50 <30 μM) BRD2(2) [3],SMILES,ApoA-1 activity (EC170 <30 μM) (ApoA-I mRNA)
Active,Active,Active,Active,–,"Cc1noc(C)c1-c1cc(C(N)=O)c(=O)n(Cc2ccccc2)c1 [Example 230, 1-Benzyl-5-(3,5-dimethylisoxazol-4-yl)-2-oxo-1,2-dihydropyridine-3-carboxamide]",Active
–,Active,Active,Active,–,"Cc1noc(C)c1-c1cc(N2CCC2)c(=O)n(Cc2ccccc2)c1 [Example 183, 3-(Azetidin-1-yl)-1-benzyl-5-(3,5-dimethylisoxazol-4-yl)pyridin-2(1H)-one]",Active
Active,Active,Not Active,Active,–,"Cc1noc(C)c1-c1cc(Nc2ccccc2)c(=O)n(Cc2ccc(F)cc2)c1 [Example 182, 5-(3,5-dimethylisoxazol-4-yl)-1-(4-fluorobenzyl)-3-(phenylamino)pyridin-2(1H)-one]",Active
Active,Active,Active,Active,–,"Cc1noc(C)c1-c1cc(N)c(=O)n(Cc2ccc(Cl)s2)c1 [Example 222, 3-amino-1-((5-chlorothiophen-2-yl)methyl)-5-(3,5-dimethylisoxazol-4-yl)pyridin-2(1H)-one]",Active
Active,Active,Active,Active,–,"Cc1noc(C)c1-c1cc(N)c(=O)n(Cc2ccc(F)c(Cl)c2)c1 [Example 212, 3-amino-1-(3-chloro-4-fluorobenzyl)-5-(3,5-dimethylisoxazol-4-yl)pyridin-2(1H)-one]",Active
Active,Active,Active,Active,–,"Cc1noc(C)c1-c1cc(NC(C)C)c(=O)n(Cc2ccccc2)c1 [Example 192, 1-benzyl-5-(3,5-dimethylisoxazol-4-yl)-3-(isopropylamino)pyridin-2(1H)-one]",Active
Active,Active,Active,Active,–,"Cc1noc(C)c1-c1cc(N)c(=O)n(Cc2ccc(F)cc2Cl)c1 [Example 207, 3-amino-1-(2-chloro-4-fluorobenzyl)-5-(3,5-dimethylisoxazol-4-yl)pyridin-2(1H)-one]",Active
Active,Active,–,Active,Active,"Cc1noc(C)c1-c1cc(Nc2ccccc2)c(=O)n(Cc2ccccc2)c1 [Example 72, 1-Benzyl-5-(3,5-dimethylisoxazol-4-yl)-3-(phenylamino)pyridin-2(1H)-one]",Active
Active,Active,Active,Active,–,"Cc1noc(C)c1-c1cc(N)c(=O)n(Cc2ccc(OC(F)(F)F)cc2)c1 [Example 226, 3-amino-5-(3,5-dimethylisoxazol-4-yl)-1-(4-(trifluoromethoxy)benzyl)pyridin-2(1H)-one]",Active
Active,Active,Active,Active,–,"Cc1noc(C)c1-c1cc(N)c(=O)n(Cc2ccccc2Cl)c1 [Example 227, 3-amino-1-(2-chlorobenzyl)-5-(3,5-dimethylisoxazol-4-yl)pyridin-2(1H)-one]",Active
Not Active,Active,Active,Active,–,"Cc1noc(C)c1-c1cc(-c2cccc(C(N)=O)c2)c(=O)n(Cc2ccccc2)c1 [Example 185, 3-(1-benzyl-5-(3,5-dimethylisoxazol-4-yl)-2-oxo-1,2-dihydropyridin-3-yl)benzamide]",Active
Active,Active,Active,Active,–,"CN1CCN(c2ccc(=O)n(Cc3ccccc3)n2)CC1=O [Example 179, 2-benzyl-6-(4-methyl-3-oxopiperazin-1-yl)pyridazin-3(2H)-one]",Active
–,Not Active,–,Active,Active,"COc1cc(-c2ccc(=O)n(Cc3ccc(C#N)cc3)n2)cc(OC)c1OC [Example 16, 4-((6-Oxo-3-(3,4,5-trimethoxyphenyl)pyridazin-1(6H)-yl)methyl)benzonitrile]",Active
Active,–,Active,Active,Active,"Cc1noc(C)c1-c1cn(Cc2ccccc2)c(=O)cn1 [Example 6, 1-Benzyl-5-(3,5-dimethylisoxazol-4-yl)pyrazin-2(1H)-one]",Active
–,Active,Active,Active,–,"Cc1noc(C)c1-c1cc(Nc2ccn(C)n2)c(=O)n(Cc2ccccc2)c1 [Example 184, 1-benzyl-5-(3,5-dimethylisoxazol-4-yl)-3-((1-methyl-1H-pyrazol-3-yl)amino)pyridin-2(1H)-one]",Active
Active,–,–,Active,Active,"Cc1noc(C)c1-c1ccc(=O)n([C@H](C)c2ccc(F)cc2)c1 (single isomer, unassigned) [Example 111]",Active
Active,–,Active,Active,Active,"Cc1noc(C)c1-c1ccc(=O)n(Cc2ccc(C(F)(F)F)cc2)c1 [Example 7, 5-(3,5-Dimethylisoxazol-4-yl)-1-(4-(trifluoromethyl)benzyl)pyridin-2(1H)-one]",Active
